Assay results from patent US20050084471A1, “Concentrated antimicrobial compositions and methods” (3M Innovative Properties Company, priority 2003, published 2005).

How the values were obtained:
[1] = test system: E. coli 0157:H7 (ATCC# 700728); test: Dip treatment of inoculated beef adipose, log reduction; format: cell-based; conditions: formulations diluted to 1% w/w + 2% lactic acid; for Log Reduction, 60 min at 5° C. / Log Reduction, 24 hours at 5° C.: 5 min treatment
Description: Bacteria were grown in the same procedure described in Example 3. The bacteria strain was non-toxic E. coli 0157: H7 (ATCC# 700728).
After inoculation, the meat pieces were placed in a cooler at 5° C. for 30+/−5 minutes to allow attachment of the organisms.
A 11.4 cm^2 coring device was used to cut surface tissue excisions no thicker than 3 mm from the inoculated samples. The stainless steel coring device was disinfected prior to each run to prevent cross-contamination among the samples. Each circular tissue excision was placed in a filter stomacher bag with 15 ml of letheen diluent and stomached for 1 minuted prior to plating.
A 11.4 cm^2 coring device was used to cut surface tissue excisions no thicker than 3 mm from the inoculated samples. The stainless steel coring device was disinfected prior to each run to prevent cross-contamination among the meat samples.
The solution was shaken well until a milky emulsion formed. The emulsion solutions were used immediately after being made.
The circles were removed immediately and the excess solution was allowed to drip from the circle for 5 sec.
The circles were placed in stomacher bags. Two of them were placed into the refrigerator and the third was tested by adding 15 ml of Letheen diluent to the third stomacher bag. This bag was stomached for 1 minute prior to plating. Duplicate samples were plated from the undiluted sample in the stomacher bag. Serial ten-fold dilutions were made and plated on a [sequence] EB plate from each dilution. After incubation the plates were counted as recommended on the package insert. After 1 h refrigeration, one of the refrigerated stomacher bags was removed and the above steps repeated for the 1 h test circle. After 24 h refrigeration, the last of the stomacher bags was removed and the above steps repeated for the 24 h test circle.
Plates were read after incubation and log reductions determined as indicated in Example 3.

[2] = test system: Staph. aureus, ATCC 25923; test: In vitro kill test of diluted formulations at 5° C., log reduction; format: cell-based, Staphylococcus aureus

Structure (SMILES): CC(O)C(=O)O (stereo not drawn) [2% Lactic Acid, Lactic Acid]
- Log Reduction, 60 min at 5° C. ([1]; solution at 5° C.): 1.37 log
- Log Reduction, 24 hours at 5° C. ([1]; solution at 5° C.): 2.26 log
- Log Reduction, 60 min at 5° C. ([1]; solution at 23° C.): 1.74 log
- Log Reduction, 60 min at 5° C. ([1]; solution at 50° C.): 2.43 log
- Log Reduction, 24 hours at 5° C. ([1]; solution at 50° C.): 2.54 log
- Log Reduction, 5 min dip ([1]; solution at 5° C.): 0.51 log
- Log Reduction, 5 min dip ([1]; solution at 23° C.): 0.87 log
- Log Reduction, 5 min dip ([1]; solution at 50° C.): 1.72 log
- Log Reduction [2]: <2.72 log
